# Assays:
# DGKα = DGKα (Homo sapiens (Human), UniProt P23743); assay: Biochemical DGK IC50 assay (ADP-Glo, lipid micelle substrate), DGKα; settings: full length DGKα […], ATP 140 μM, DAG 80 μM; further: full length DGKα 7.5 nM
# Experimental: (§1) Enzymatic reactions of DGKζ, DGKα and DGKδ were performed using ADP-Glo assay with lipid micelle substrate. […] Full length DGKα (D21-10BG, SignalChem) and full length DGKδ (D23-10G, SignalChem) were purchased. Lipid micelle was prepared by dissolving DAG (Sigma, 317505-10MG) and PS (Sigma, P7769-100MG) with chloroform which was furtherly removed by rotary evaporation. The resulted product was resuspended in buffer containing 25 mM HEPES pH 7.0, 0.5 mM EDTA and 160 mM Octyl β-D glucopyranoside by vigorous mixing and ultrasonic (IID, Scientz).
# (§2) The inhibition activities testing for the compound disclosed herein were carried out at room temperature in assay buffer containing 50 mM HEPES, 10 mM MgCl2, 0.01% BSA, 0.1 mM Na3VO4, 0.005% Tween-20 and 0.01 mM CaCl2. Compounds in DMSO were dispensed into wells of a black 384 well plate (Corning 4514) using D300e digital dispenser (Tecan). […] 3 μL 2× enzyme solution was added to wells. […] After 1 hour reaction, 5 μL ADP-Glo reagent (Promga V9101) was added and incubated for 40 minutes. 10 μL Kinase Detection reagent was added and incubated for 30 minutes. Luminescence was measured on a microplate reader (PHERAstar FSX, BMG labtech). The IC50s are calculated based on inhibition of enzyme activity in the presence of increasing concentrations of compounds.
# DGKζ = DGKζ (Homo sapiens (Human), UniProt Q13574); assay: Biochemical DGK IC50 assay (ADP-Glo, lipid micelle substrate), DGKζ; settings: full length DGKζ 0.5 nM, ATP 140 μM, DAG 80 μM
# Chain of DGKζ (Q13574 other isoform, or with tags, fused parts or gaps): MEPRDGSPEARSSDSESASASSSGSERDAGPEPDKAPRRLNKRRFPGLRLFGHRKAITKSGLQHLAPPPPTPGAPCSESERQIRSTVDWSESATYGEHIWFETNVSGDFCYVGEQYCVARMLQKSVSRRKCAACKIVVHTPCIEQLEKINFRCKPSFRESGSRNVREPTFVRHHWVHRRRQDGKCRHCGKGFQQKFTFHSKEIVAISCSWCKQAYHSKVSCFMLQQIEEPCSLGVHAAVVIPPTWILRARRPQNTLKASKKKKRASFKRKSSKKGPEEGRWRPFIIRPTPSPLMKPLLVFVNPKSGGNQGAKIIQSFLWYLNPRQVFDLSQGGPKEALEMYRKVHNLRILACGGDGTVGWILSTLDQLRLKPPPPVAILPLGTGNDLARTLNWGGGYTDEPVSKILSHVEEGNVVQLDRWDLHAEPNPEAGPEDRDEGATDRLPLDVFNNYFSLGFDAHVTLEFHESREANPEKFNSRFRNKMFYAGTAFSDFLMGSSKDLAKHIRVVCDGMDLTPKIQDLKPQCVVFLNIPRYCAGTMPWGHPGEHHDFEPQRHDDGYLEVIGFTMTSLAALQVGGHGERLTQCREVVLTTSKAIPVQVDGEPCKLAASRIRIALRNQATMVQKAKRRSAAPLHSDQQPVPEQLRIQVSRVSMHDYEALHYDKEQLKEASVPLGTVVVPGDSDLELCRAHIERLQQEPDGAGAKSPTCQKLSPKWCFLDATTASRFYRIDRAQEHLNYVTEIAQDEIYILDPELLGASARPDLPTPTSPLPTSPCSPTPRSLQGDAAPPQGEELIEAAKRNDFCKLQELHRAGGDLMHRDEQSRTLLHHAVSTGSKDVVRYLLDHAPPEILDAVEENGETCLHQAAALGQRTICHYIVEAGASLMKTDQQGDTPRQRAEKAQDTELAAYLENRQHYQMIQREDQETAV
# Experimental: as §1, §2
# Human His-TEV-DGK-zeta-pFastBac1 and human baculovirus samples was generated using the Bac-to-Bac baculovirus expression system (Invitrogen) according to the manufacturer's protocol. The DNA used for expression of DGK-zeta, have SEQ ID Nos: 1. Baculovirus amplification was achieved using infected SF9 cells at 1:2000 virus/cells ratios, and grown for 96 hours at 27° C. post-transfected.
# Full length human DGKζ produced as described above, was purified from Sf9 baculovirus-infected insect cell paste. The cells were lysed using sonication method, and the lysates were clarified by centrifugation.
# Chain of DGKα (P23743 whole entry): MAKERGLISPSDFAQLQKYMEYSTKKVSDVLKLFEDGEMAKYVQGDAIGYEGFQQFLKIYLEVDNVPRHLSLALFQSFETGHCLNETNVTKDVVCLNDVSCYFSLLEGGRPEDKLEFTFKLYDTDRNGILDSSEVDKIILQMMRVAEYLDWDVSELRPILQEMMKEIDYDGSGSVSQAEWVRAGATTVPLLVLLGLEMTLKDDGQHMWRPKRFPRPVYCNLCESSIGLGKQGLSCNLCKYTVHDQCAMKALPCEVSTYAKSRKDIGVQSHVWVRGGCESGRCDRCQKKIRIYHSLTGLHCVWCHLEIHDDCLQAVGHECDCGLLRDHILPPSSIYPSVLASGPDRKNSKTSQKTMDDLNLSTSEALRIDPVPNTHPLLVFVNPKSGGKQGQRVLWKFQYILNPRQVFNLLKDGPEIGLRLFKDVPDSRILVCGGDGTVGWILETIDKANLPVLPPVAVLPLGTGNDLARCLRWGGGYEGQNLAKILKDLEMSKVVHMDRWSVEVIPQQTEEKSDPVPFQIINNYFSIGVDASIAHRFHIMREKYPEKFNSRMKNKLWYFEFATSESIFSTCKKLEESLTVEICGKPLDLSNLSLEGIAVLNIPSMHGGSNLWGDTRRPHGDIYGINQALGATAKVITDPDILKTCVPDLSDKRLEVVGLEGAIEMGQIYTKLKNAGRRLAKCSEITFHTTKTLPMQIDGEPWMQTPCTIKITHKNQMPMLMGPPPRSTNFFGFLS
IC50 (DGKα) [nM],IC50 (DGKζ) [nM],Structure (SMILES)
64900,153,"CC[C@@H]1CN(c2cc(=O)[nH]c3cc(CC#N)nn23)[C@@H](C)CN1C(C)c1ccc2nccnc2c1 (single isomer, unassigned) [Compound A4a]"
617,80,"CC[C@H]1CN(C(C)c2ccc3nc(C)sc3c2)[C@H](CC)CN1c1cc(=O)n(C)c2cc(CC#N)nn12 (stereo partly drawn) [Compound A31, 2-(7-((2S,5R)-2,5-diethyl-4-(1-(2-methylbenzo[d]thiazol-6-yl)ethyl)piperazin-1-yl)-4-methyl-5-oxo-4,5-dihydropyrazolo[1,5-a]pyrimidin-2-yl)acetonitrile]"
13300,42,"CC(c1ccc2ncc(Cl)nc2c1)N1C[C@H](C)N(c2cc(=O)n(C)c3cc(CC#N)nn23)C[C@H]1C (stereo partly drawn) [Compound A8, 2-(7-((2S,5R)-4-(1-(3-chloroquinoxalin-6-yl)ethyl)-2,5-dimethylpiperazin-1-yl)-4-methyl-5-oxo-4,5-dihydropyrazolo[1,5-a]pyrimidin-2-yl)acetonitrile]"
116000,100,"Cc1cnc2ccc(C(C)N3C[C@H](C)N(c4cc(=O)[nH]c5cc(CC#N)nn45)C[C@H]3C)cc2n1 (stereo partly drawn) [Compound A5, 2-(7-((2S,5R)-2,5-dimethyl-4-(1-(3-methylquinoxalin-6-yl)ethyl)piperazin-1-yl)-5-oxo-4,5-dihydropyrazolo[1,5-a]pyrimidin-2-yl)acetonitrile]"
114,20,"CC[C@H]1CN(C(C)c2ccc3nc(C)sc3c2)[C@H](CC)CN1c1nc(=O)n(C)c2cc(CC#N)nn12 (single isomer, unassigned) [Compound A53a]"
148,175,"CC[C@H]1CN(C(C)c2ccc(OC(C)C)cn2)[C@H](CC)CN1c1cc(=O)n(C)c2cc(CC#N)nn12 (stereo partly drawn) [Compound A25, 2-(7-((2S,5R)-2,5-diethyl-4-(1-(5-isopropoxypyridin-2-yl)ethyl)piperazin-1-yl)-4-methyl-5-oxo-4,5-dihydropyrazolo[1,5-a]pyrimidin-2-yl)acetonitrile]"
111,38,"CC[C@H]1CN(C(C)c2ccn3nc(Cl)c(F)c3n2)[C@H](CC)CN1c1nc(=O)n(C)c2cc(CC#N)nn12 (stereo partly drawn) [Compound A59, 2-(4-((2S,5R)-4-(1-(2-chloro-3-fluoropyrazolo[1,5-a]pyrimidin-5-yl)ethyl)-2,5-diethylpiperazin-1-yl)-1-methyl-2-oxo-1,2-dihydropyrazolo[1,5-a][1,3,5]triazin-7-yl)acetonitrile]"
63,40,"CC[C@H]1CN(C(C)c2ccn3nc(F)c(F)c3n2)[C@H](CC)CN1c1nc(=O)n(C)c2cc(CC#N)nn12 (stereo partly drawn) [Compound A60, 2-(4-((2S,5R)-4-(1-(2,3-difluoropyrazolo[1,5-a]pyrimidin-5-yl)ethyl)-2,5-diethylpiperazin-1-yl)-1-methyl-2-oxo-1,2-dihydropyrazolo[1,5-a][1,3,5]triazin-7-yl)acetonitrile]"
3880,> 10000,"CC[C@H]1CN(C(C)c2ccc3nc(C)cn3n2)[C@H](CC)CN1c1cc(=O)n(C)c2cc(CC#N)nn12 (single isomer, unassigned) [Compound A38a]"
161,7900,"CC[C@H]1CN(C(C)c2ccncc2)[C@H](CC)CN1c1cc(=O)n(C)n2cc(CC#N)nc12 (stereo partly drawn) [Compound A19, 2-(8-((2S,5R)-2,5-diethyl-4-(1-(pyridin-4-yl)ethyl)piperazin-1-yl)-5-methy-6-oxo-5,6-dihydroimidazo[1,2-b]pyridazin-2-yl)acetonitrile]"
61,53,"CC[C@H]1CN(C(C)c2ccn3nc(C)cc3n2)[C@H](CC)CN1c1cc(=O)n(C)c2cc(CC#N)nn12 (single isomer, unassigned) [Compound A40b]"
> 10000,> 10000,"CC(c1ccc2nccnc2c1)N1CCC(c2cc(=O)n(C)c3cc(CC#N)nn23)C[C@H]1C (single isomer, unassigned) [Compound A33a]"
1540,5770,"CC[C@H]1CN(C(C)c2ccn3nc(C)cc3n2)[C@H](CC)CN1c1cc(=O)n(C)c2cc(CC#N)nn12 (single isomer, unassigned) [Compound A40a]"
69,19,"CC[C@H]1CN(C(C)c2ccn3nc(C4CC4)cc3n2)[C@H](CC)CN1c1nc(=O)n(C)c2cc(CC#N)nn12 (single isomer, unassigned) [Compound A54b]"
6520,29,"CC(c1ccc2c(c1)OC(C)(C)CO2)N1C[C@H](C)N(c2c(C#N)c(=O)n(C)c3cc(CC#N)nn23)C[C@H]1C (stereo partly drawn) [Compound A12, 2-(cyanomethyl)-7-((2S,5R)-4-(1-(3,3-dimethyl-2,3-dihydrobenzo[b][1,4]dioxin-6-yl)ethyl)-2,5-dimethylpiperazin-1-yl)-4-methyl-5-oxo-4,5-dihydropyrazolo[1,5-a]pyrimidine-6-carbonitrile]"
12500,11,"CC(c1ccc2c(c1)OC(C)(C)CO2)N1C[C@H](C)N(c2c(C#N)c(=O)n(C)c3cc(CC#N)nn23)C[C@H]1C (single isomer, unassigned) [Compound A12a]"
4480,2650,"CC[C@@H]1CN(c2c(F)c(=O)n(C)c3cc(CC#N)nn23)[C@@H](C)CN1C(C)c1ccc(C2CC2)nc1 (single isomer, unassigned) [Compound A24b]"
810,1000,"CC(c1ccc2nccnc2c1)N1C[C@H](C)N(c2cc(=O)n(C)c3cc(C#N)nn23)C[C@H]1C (stereo partly drawn) [Compound A1, 7-((2S,5R)-2,5-dimethyl-4-(1-(quinoxalin-6-yl)ethyl)piperazin-1-yl)-4-methyl-5-oxo-4,5-dihydropyrazolo[1,5-a]pyrimidine-2-carbonitrile]"
> 150000,> 10000,"CC(c1ccc2nccnc2c1)N1CCC(c2cc(=O)n(C)c3cc(CC#N)nn23)C[C@@H]1C (single isomer, unassigned) [Compound A34b]"
212,42,"CC[C@@H]1CN(c2cc(=O)n(C)c3cc(CC#N)nn23)[C@@H](C)CN1[C@@H](C)c1ccc2ncsc2n1 (single isomer, unassigned) [Compound A29a]"
52,104,"CC[C@H]1CN(C(C)c2ccn3nccc3n2)[C@H](CC)CN1c1cc(=O)n(C)c2cc(CC#N)nn12 (single isomer, unassigned) [Compound A39b]"
2670,3870,"CC[C@@H]1CN(c2c(F)c(=O)n(C)c3cc(CC#N)nn23)[C@@H](C)CN1C(C)c1ccc(C2CC2)nc1 (single isomer, unassigned) [Compound A24a]"
15,42,"CC[C@H]1CN(C(C)c2ccn3nc(Cl)cc3n2)[C@H](CC)CN1c1nc(=O)n(C)c2cc(CC#N)nn12 (stereo partly drawn) [Compound A58, 2-(4-((2S,5R)-4-(l-(2-chloropyrazolo[1,5-a]pyrimidin-5-yl)ethyl)-2,5-diethylpiperazin-1-yl)-1-methyl-2-oxo-1,2-dihydropyrazolo[1,5-a][1,3,5]triazin-7-yl)acetonitrile]"
200,1580,"CC[C@H]1CN(C(C)c2ccc3cc(C(F)F)sc3n2)[C@H](CC)CN1c1cc(=O)n(C)c2cc(CC#N)nn12 (single isomer, unassigned) [Compound A37a]"
> 10000,7390,"CC[C@@H]1CN(c2cc(=O)[nH]c3cc(CC#N)nn23)[C@@H](C)CN1C(C)c1ccc2nccnc2c1 (single isomer, unassigned) [Compound A4b]"
1200,61,"CC[C@H]1CN(C(C)c2ccc(C3CC3)nc2F)[C@H](CC)CN1c1cc(=O)n(C)c2cc(CC#N)nn12 (stereo partly drawn) [Compound A26, 2-(7-((2S,5R)-4-(1-(6-cyclopropyl-2-fluoropyridin-3-yl)ethyl)-2,5-diethylpiperazin-1-yl)-4-methyl-5-oxo-4,5-dihydropyrazolo[1,5-a]pyrimidin-2-yl)acetonitrile]"
63,24,"CC[C@H]1CN(C(C)c2ccc3nc(C)c(F)n3n2)[C@H](CC)CN1c1nc(=O)n(C)c2cc(CC#N)nn12 (single isomer, unassigned) [Compound A48b]"
4640,58,"CC(c1ccc2ncc(C(F)F)nc2c1)N1C[C@H](C)N(c2cc(=O)n(C)c3cc(CC#N)nn23)C[C@H]1C (stereo partly drawn) [Compound A6, 2-(7-((2S,5R)-4-(1-(3-(difluoromethyl)quinoxalin-6-yl)ethyl)-2,5-dimethylpiperazin-1-yl)-4-methyl-5-oxo-4,5-dihydropyrazolo[1,5-a]pyrimidin-2-yl)acetonitrile]"
